Laboratory results as given in PubChem BioAssay AID256 (DTP/NCI, 2004).
Several values for one entry are separate records, joined by “and”; a condition that tells them apart may be missing. Identical values can stand only once. Toxic doses and inconclusive results are not listed.

Tested on: CD2F1 mice, L1210 leukemia ip, survival T/C
Assay: NCI In Vivo Anticancer Drug Screen. Data for tumor model L1210 Leukemia (intraperitoneal) in CD2F1 (CDF1) mice
Conditions: higher = longer survival
How it was run: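 Mice carrying a transplanted tumor received test compound or vehicle alone. The value is the measurement in the treated group divided by that in the vehicle-treated control group.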

[1] = endpoint: mean survival time, dose: 100.0 mg/kg/injection, schedule: Q04DX003 (ip), vehicle: saline with Tween-80
[2] = endpoint: mean survival time, dose: 200.0 mg/kg/injection, schedule: Q04DX003 (ip), vehicle: saline with Tween-80
[3] = endpoint: mean survival time, dose: 100.0 mg/kg/injection, schedule: Q01DX009 (ip), vehicle: saline with Tween-80
[4] = endpoint: mean survival time, dose: 200.0 mg/kg/injection, schedule: Q01DX009 (ip), vehicle: saline with Tween-80
[5] = endpoint: mean survival time, dose: 400.0 mg/kg/injection, schedule: Q01DX009 (ip), vehicle: saline with Tween-80
[6] = endpoint: mean survival time, dose: 400.0 mg/kg/injection, schedule: Q04DX003 (ip), vehicle: saline with Tween-80
[7] = endpoint: mean survival time, dose: 12.5 mg/kg/injection, schedule: Q01DX009 (ip), vehicle: saline with Tween-80
[8] = endpoint: mean survival time, dose: 25.0 mg/kg/injection, schedule: Q01DX009 (ip), vehicle: saline with Tween-80
[9] = endpoint: mean survival time, dose: 50.0 mg/kg/injection, schedule: Q01DX009 (ip), vehicle: saline with Tween-80
[10] = endpoint: mean survival time, dose: 100.0 mg/kg/injection, schedule: Q04DX002 (ip), vehicle: saline with Tween-80
[11] = endpoint: mean survival time, dose: 12.5 mg/kg/injection, schedule: Q01DX009 (ip), vehicle: Klucel (hydroxypropylcellulose) (HPC)
[12] = endpoint: mean survival time, dose: 25.0 mg/kg/injection, schedule: Q01DX009 (ip), vehicle: Klucel (hydroxypropylcellulose) (HPC)
[13] = endpoint: mean survival time, dose: 50.0 mg/kg/injection, schedule: Q01DX009 (ip), vehicle: Klucel (hydroxypropylcellulose) (HPC)
[14] = endpoint: mean survival time, dose: 100.0 mg/kg/injection, schedule: Q01DX009 (ip), vehicle: Klucel (hydroxypropylcellulose) (HPC)
[15] = endpoint: mean survival time, dose: 200.0 mg/kg/injection, schedule: Q01DX009 (ip), vehicle: Klucel (hydroxypropylcellulose) (HPC)
[16] = endpoint: mean survival time, dose: 100.0 mg/kg/injection, schedule: Q01DX001 (ip), vehicle: saline with Tween-80
[17] = endpoint: mean survival time, dose: 200.0 mg/kg/injection, schedule: Q01DX001 (ip), vehicle: saline with Tween-80
[18] = endpoint: mean survival time, dose: 400.0 mg/kg/injection, schedule: Q01DX001 (ip), vehicle: saline with Tween-80

## C=C(C)C1CCC2(C=O)CCC3(C)C(CCC4C5(C)CCC(OC6CCCCO6)C(C)(C)C5CCC43C)C12 (stereo unspecified)
endpoint: mean survival time, dose: 6.25 mg/kg/injection, schedule: Q04DX002 (ip), vehicle: saline with Tween-80
  T/C: 111 % of control
endpoint: mean survival time, dose: 12.5 mg/kg/injection, schedule: Q04DX002 (ip), vehicle: saline with Tween-80
  T/C: 100 % of control
endpoint: mean survival time, dose: 25.0 mg/kg/injection, schedule: Q04DX002 (ip), vehicle: saline with Tween-80
  T/C: 100 % of control

## ClCc1c2c(cc3c1CCCC3)CCCC2
[1]
  T/C: 105 % of control
[2]
  T/C: 93 % of control

## O=[N+]([O-])c1ccc(C(O)C(Br)[N+](=O)[O-])cc1 (stereo unspecified)
[3]
  T/C: 93 % of control
[1]
  T/C: 101 % of control
[4]
  T/C: 94 % of control
[2]
  T/C: 98 % of control
[5]
  T/C: 87 % of control
[6]
  T/C: 95 % of control

## CC(=O)Nc1cc(NC(C)=O)cc(N(CCCl)CCCl)c1
endpoint: mean survival time, dose: 12.5 mg/kg/injection, schedule: Q01DX005 (ip), vehicle: water
  T/C: 100 % of control
endpoint: mean survival time, dose: 25.0 mg/kg/injection, schedule: Q01DX005 (ip), vehicle: water
  T/C: 106 % of control
endpoint: mean survival time, dose: 50.0 mg/kg/injection, schedule: Q01DX005 (ip), vehicle: water
  T/C: 101 % of control

## O=[N+]([O-])c1ccc(Oc2c(Cl)cc(Cl)c(Cl)c2Cl)c([N+](=O)[O-])c1
endpoint: mean survival time, dose: 75.0 mg/kg/injection, schedule: Q01DX001 (ip), vehicle: other
  T/C: 100 % of control
endpoint: mean survival time, dose: 150.0 mg/kg/injection, schedule: Q01DX001 (ip), vehicle: other
  T/C: 102 % of control
endpoint: mean survival time, dose: 300.0 mg/kg/injection, schedule: Q01DX001 (ip), vehicle: other
  T/C: 94 % of control

## C=C(C#N)C(=O)OCC(CC)CC.C=C(C#N)C(=O)OCC(CC)CC.CS(C)=O.CS(C)=O.Nc1c(N=Nc2ccc(-c3ccc(N=Nc4cc(S(=O)(=O)[O-])c5ccccc5c4N)cc3)cc2)cc(S(=O)(=O)[O-])c2ccccc12.[Pt+2]
endpoint: median survival time, dose: 3.12 mg/kg/injection, schedule: Q04DX003 (ip), vehicle: saline with Tween-80
  T/C: 95 % of control
endpoint: median survival time, dose: 6.25 mg/kg/injection, schedule: Q04DX003 (ip), vehicle: saline with Tween-80
  T/C: 106 % of control
endpoint: median survival time, dose: 12.5 mg/kg/injection, schedule: Q04DX003 (ip), vehicle: saline with Tween-80
  T/C: 108 % of control
endpoint: median survival time, dose: 25.0 mg/kg/injection, schedule: Q04DX003 (ip), vehicle: saline with Tween-80
  T/C: 100 % of control
endpoint: median survival time, dose: 50.0 mg/kg/injection, schedule: Q04DX003 (ip), vehicle: saline with Tween-80
  T/C: 97 % of control
endpoint: median survival time, dose: 100.0 mg/kg/injection, schedule: Q04DX003 (ip), vehicle: saline with Tween-80
  T/C: 98 % of control
endpoint: median survival time, dose: 200.0 mg/kg/injection, schedule: Q04DX003 (ip), vehicle: saline with Tween-80
  T/C: 90 % of control

## CN=S(=O)(OCCCCCOS(=O)(=NC)c1ccccc1)c1ccccc1 (stereo unspecified)
[7]
  T/C: 103 % of control
[8]
  T/C: 106 % of control
[9]
  T/C: 103 % of control
[3]
  T/C: 106 % of control

## CC(C)(C)C1OCCCO1
endpoint: mean survival time, dose: 100.0 mg/kg/injection, schedule: Q04DX002 (ip), vehicle: saline
  T/C: 104 % of control
endpoint: mean survival time, dose: 200.0 mg/kg/injection, schedule: Q04DX002 (ip), vehicle: saline
  T/C: 110 % of control
endpoint: mean survival time, dose: 400.0 mg/kg/injection, schedule: Q04DX002 (ip), vehicle: saline
  T/C: 104 % of control

## CCCCC1CCCCCCc2[nH]c(/C=C3\N=C(c4ccc[nH]4)C=C3OC)cc21 (stereo unspecified)
endpoint: mean survival time, dose: 0.12 mg/kg/injection, schedule: Q01DX009 (ip), vehicle: saline with Tween-80
  T/C: 103 % of control
endpoint: mean survival time, dose: 0.25 mg/kg/injection, schedule: Q01DX009 (ip), vehicle: saline with Tween-80
  T/C: 107 % of control
endpoint: mean survival time, dose: 0.5 mg/kg/injection, schedule: Q01DX009 (ip), vehicle: saline with Tween-80
  T/C: 116 % of control
endpoint: mean survival time, dose: 1.0 mg/kg/injection, schedule: Q01DX009 (ip), vehicle: saline with Tween-80
  T/C: 105 % of control
endpoint: mean survival time, dose: 2.0 mg/kg/injection, schedule: Q01DX009 (ip), vehicle: saline with Tween-80
  T/C: 106 % of control

## O=C1CSC(=S)N1
[3]
  T/C: 89 % of control
[1]
  T/C: 105 % of control
[4]
  T/C: 97 % of control
[2]
  T/C: 92 % of control
[6]
  T/C: 94 % of control

## CC(C)c1oc(=O)cc2c1C(O)C1OC(=O)C3(C)C(O)C4OC4C2(C)C13 (stereo unspecified) (tested in a mixture with another compound)
[10]
  T/C: 105 % of control

## CC1CN=C(c2ccc(NC(=O)c3ccc(C(=O)Nc4ccc(C5=NCC(C)N5)cc4)cc3)cc2)N1 (stereo unspecified)
[11]
  T/C: 212 % of control
[12]
  T/C: 269 % of control
[13]
  T/C: 290 % of control
[14]
  T/C: 305 % of control
[15]
  T/C: 333 % of control
endpoint: mean survival time, dose: 400.0 mg/kg/injection, schedule: Q01DX009 (ip), vehicle: Klucel (hydroxypropylcellulose) (HPC)
  T/C: 288 % of control

## COc1ccc(/C=N/NC(=O)CNC(=O)Nc2cccc(Cl)c2)cc1
[7]
  T/C: 91 % of control
[8]
  T/C: 91 % of control

## O=C(Nc1ccccc1)Nc1cc(Cl)ccc1O
[16]
  T/C: 98 % of control
[17]
  T/C: 98 % of control
[18]
  T/C: 91 % of control

## NC(CSS(=O)(=O)CC(N)C(=O)O)C(=O)O (stereo unspecified)
endpoint: mean survival time, dose: 100.0 mg/kg/injection, schedule: Q04DX003 (ip), vehicle: saline
  T/C: 103 % of control
endpoint: mean survival time, dose: 200.0 mg/kg/injection, schedule: Q04DX003 (ip), vehicle: saline
  T/C: 109 % of control
endpoint: mean survival time, dose: 400.0 mg/kg/injection, schedule: Q04DX003 (ip), vehicle: saline
  T/C: 103 % of control

## CC(C)(C)N(Cc1ccccc1)Cc1ccccc1
[3]
  T/C: 102 % of control
[4]
  T/C: 98 % of control
[5]
  T/C: 101 % of control

## COc1cc2ccc3cnccc3c2cc1OC
[11]
  T/C: 100 % of control
[12]
  T/C: 92 % of control
[13]
  T/C: 94 % of control
[14]
  T/C: 94 % of control
[15]
  T/C: 100 % of control

## Cn1ccoc1=NC1CCCCC1
[9]
  T/C: 94 % of control
[3]
  T/C: 94 % of control
[4]
  T/C: 91 % of control

## CCC(N)c1ccc2c3c(cccc13)CC2 (stereo unspecified)
[16]
  T/C: 89 % of control
[17]
  T/C: 86 % of control
[18]
  T/C: 89 % of control

## C/C(C(=O)O)=C(\C)C(=O)O
endpoint: mean survival time, dose: 100.0 mg/kg/injection, schedule: Q01DX005 (ip), vehicle: saline
  T/C: 101 % of control
endpoint: mean survival time, dose: 200.0 mg/kg/injection, schedule: Q01DX005 (ip), vehicle: saline
  T/C: 101 % of control
endpoint: mean survival time, dose: 400.0 mg/kg/injection, schedule: Q01DX005 (ip), vehicle: saline
  T/C: 101 % of control

## [CH3][Sn]([CH3])([Br])[CH2]CCCBr
endpoint: mean survival time, dose: 0.39 mg/kg/injection, schedule: Q01DX009 (ip), vehicle: saline
  T/C: 90 % of control
endpoint: mean survival time, dose: 0.78 mg/kg/injection, schedule: Q01DX009 (ip), vehicle: saline
  T/C: 94 % of control
endpoint: mean survival time, dose: 1.56 mg/kg/injection, schedule: Q01DX009 (ip), vehicle: saline
  T/C: 92 % of control
endpoint: mean survival time, dose: 6.25 mg/kg/injection, schedule: Q01DX009 (ip), vehicle: saline
  T/C: 98 % of control
endpoint: mean survival time, dose: 12.5 mg/kg/injection, schedule: Q01DX009 (ip), vehicle: saline
  T/C: 91 % of control

## Cn1ccn(C2CCCCC2)c1=O
[8]
  T/C: 98 % of control
endpoint: mean survival time, dose: 25.0 mg/kg/injection, schedule: Q04DX003 (ip), vehicle: saline with Tween-80
  T/C: 96 % of control
[9]
  T/C: 101 % of control
endpoint: mean survival time, dose: 50.0 mg/kg/injection, schedule: Q04DX003 (ip), vehicle: saline with Tween-80
  T/C: 100 % of control
[3]
  T/C: 95 % of control
[1]
  T/C: 91 % of control and 93 % of control

## CC(=O)Nc1cccc(Cl)c1
[16]
  T/C: 92 % of control
[3]
  T/C: 106 % of control
[1]
  T/C: 98 % of control and 103 % of control
[17]
  T/C: 100 % of control
[4]
  T/C: 96 % of control
[2]
  T/C: 98 % of control and 116 % of control
[18]
  T/C: 94 % of control
[5]
  T/C: 91 % of control
[6]
  T/C: 94 % of control and 109 % of control

## Nc1nc2c([nH]c(=S)n2C2OC(CO)C(O)C2O)c(=O)[nH]1 (stereo unspecified)
[10]
  T/C: 100 % of control
endpoint: mean survival time, dose: 200.0 mg/kg/injection, schedule: Q04DX002 (ip), vehicle: saline with Tween-80
  T/C: 97 % of control
endpoint: mean survival time, dose: 400.0 mg/kg/injection, schedule: Q04DX002 (ip), vehicle: saline with Tween-80
  T/C: 97 % of control
